Results taken from US11203600B2 (Denali Therapeutics Inc., priority 2017, dated 2021).
pIC50: −log10 of the molar value.

biological target: GST-hRIPK1 (8-327) (Homo sapiens (Human), UniProt Q13546); assay: Fluorescent Polarization Binding (FP Binding) assay, RIPK1; conditions: 10 nM GST-hRIPK1 (8-327), 5 nM fluorescent-labeled ligand, RT, 30 min, mean of at least two independent experiments
Method: Fluorescent Polarization Binding (FP Binding) assay (Berger S. B. et al. (2015) Cell Death Discovery, 1: 15009; Maki J. L. et al. (2012) Anal Biochem., 427(2): 164-174) was performed in polystyrene low volume 384-well black plate, at RT in a final volume of 10.1 μl/well using 10 nM of GST-hRIPK1 (8-327) enzyme and 5 nM of fluorescent-labeled ligand (14-(2-{[3-({2-{[4-(cyanomethyl)phenyl]amino]-6-[(5-cyclopropyl-1H-pyrazol-3-yl)amino]-4-pyrimidinyl}amino) propyl}amino}-2-oxoethyl)-16,16,18,18-tetramethyl-6,7,7a,8a,9,10,16,18-octahydrobenzo [2″,3″]indolizino[8″,7″:5′,6′]pyrano [3′,2′:3,4]pyrido[1,2-a]indo1-5-ium-2-sulfonate.
Test compounds were serially diluted in DMSO at 100 fold final concentrations in the assay (1% DMSO final). In each well of a 384-well Plate were dispensed 0.1 μL of compound solution (or DMSO for controls) followed by 5 μL of GST-hRIPK1 (8-327) at twice the final concentrations in assay buffer (50 mM HEPES pH 7.5, 10 mM NaCl, 50 mM MgCl2, 0.02% CHAPS, 0.5 mM DTT and 0.01% Pluronic F127). For negative control the enzyme addition was replaced by assay buffer only.
After addition of 5 μL of fluorescentlabeled ligand at twice the final concentrations in assay buffer, the plate was incubated at RT for […]. At the end, the binding was measured as FP value with the Envision (PerkinElmer) plate reader using filter for an excitation λ=531 nm FP and an emission λ=595 nm FP (S & P-pol). GST-hRIPK1 (8-327) enzyme was produced via Baculovirus expression.
Test compound inhibition was expressed as percent inhibition of internal assay controls. For concentration response curves, normalized data is fit and IC50 determined using XL-fit (IDBS) for Excel. The IC50 values were averaged to determine a mean value, for a minimum of two independent experiments. Results are shown in Table 2 (RIPK1 IC50) values: +++=0.1 nM<IC50<100 nM; ++=100 nM<IC50<1 μM; +=1 μM<IC50).

Chain of GST-hRIPK1 (8-327) (Q13546 8-327): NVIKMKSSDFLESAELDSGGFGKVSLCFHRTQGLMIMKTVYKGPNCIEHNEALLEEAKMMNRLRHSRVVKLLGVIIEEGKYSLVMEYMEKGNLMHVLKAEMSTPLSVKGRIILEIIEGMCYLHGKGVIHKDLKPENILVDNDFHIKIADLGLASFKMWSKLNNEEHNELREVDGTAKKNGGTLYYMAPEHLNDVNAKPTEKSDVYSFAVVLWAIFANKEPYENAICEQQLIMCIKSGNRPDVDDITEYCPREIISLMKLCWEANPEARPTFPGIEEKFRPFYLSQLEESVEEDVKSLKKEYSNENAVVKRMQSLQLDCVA

Structure (SMILES) | pIC50
COc1ccnc(N2CCC(C(=O)N3CCOc4c(C#N)cncc4C3)CC2)n1 [Example 117, 4-[1-(4-methoxypyrimidin-2-yl)piperidine-4-carbonyl]-3,5-dihydro-2H-pyrido[3,4-f][1,4]oxazepine-9-carbonitrile] | 7.00 to 10.00
N#Cc1cncc2c1OCCN(C(=O)C1(F)CCN(c3ncc(F)c(NC4CC4)n3)CC1)C2 [Example 124, 4-[1-[4-(cyclopropylamino)-5-fluoro-pyrimidin-2-yl]-4-fluoro-piperidine-4-carbonyl]-3,5-dihydro-2H-pyrido[3,4-f][1,4]oxazepine-9-carbonitrile] | 7.00 to 10.00
O=C(C1CCN(c2ncc(F)cn2)CC1)N1CCOc2c(F)cncc2C1 [Example 156, (9-fluoro-3,5-dihydro-2H-pyrido[3,4-f][1,4]oxazepin-4-yl)-[1-(5-fluoropyrimidin-2-yl)-4-piperidyl]methanone] | 7.00 to 10.00
CCC(C)(C)C(=O)N1CCOc2ccccc2C1 [Example 6, 1-(3,5-dihydro-2H-1,4-benzoxazepin-4-yl)-2,2-dimethyl-butan-1-one] | 7.00 to 10.00
CC(C)(C(=O)N1CCOc2ccc(F)cc2C1)C(F)F [Example 33, 3,3-difluoro-1-(7-fluoro-2,3,4,5-tetrahydro-1,4-benzoxazepin-4-yl)-2,2-dimethylpropan-1-one] | 7.00 to 10.00
CCC(C)(CC)C(=O)N1CCOc2c(C#N)cncc2C1 [Example 151, 4-(2-ethyl-2-methyl-butanoyl)-3,5-dihydro-2H-pyrido[3,4-f][1,4]oxazepine-9-carbonitrile] | 7.00 to 10.00
COC1(C(=O)N2CCOc3c(F)cncc3C2)CCN(c2ncc(F)c(OCCN(C)C)n2)CC1 [Example 136] | < 6.00
CC(C)(C(=O)N1CCOc2cc(C#N)ccc2C1)C(F)F [Example 28, 4-(3,3-difluoro-2,2-dimethyl-propanoyl)-3,5-dihydro-2H-1,4-benzoxazepine-8-carbonitrile] | 6.00 to 7.00
C[C@@H]1COc2c(C#N)cncc2CN1C(=O)C(C)(C)C(F)F [Example 52, (3R)-4-(3,3-difluoro-2,2-dimethyl-propanoyl)-3-methyl-3,5-dihydro-2H-pyrido[3,4-f][1,4]oxazepine-9-carbonitrile] | 7.00 to 10.00
Cc1ccc2c(c1)CN(C(=O)C(C)(C)C(F)F)CCO2 [Example 11, 3,3-difluoro-2,2-dimethyl-1-(7-methyl-2,3-dihydrobenzo[f][1,4]oxazepin-4(5H)-yl)propan-1-one] | 6.00 to 7.00
CC(C(=O)N1CCOc2c(C#N)cncc2C1)C1CC1 (stereo not drawn) [Example 146, 4-(2-cyclopropylpropanoyl)-3,5-dihydro-2H-pyrido[3,4-f][1,4]oxazepine-9-carbonitrile] | 6.00 to 7.00
CC(C)(C(=O)N1CCOc2c(C#N)cc(F)cc2C1)C(F)F [Example 22, 4-(3,3-difluoro-2,2-dimethyl-propanoyl)-7-fluoro-3,5-dihydro-2H-1,4-benzoxazepine-9-carbonitrile] | 7.00 to 10.00
C[C@@H]1COc2c(C#N)cncc2CN1C(=O)C(C)(C)C [Example 78, (3R)-4-(2,2-dimethylpropanoyl)-3-methyl-3,5-dihydro-2H-pyrido[3,4-f][1,4]oxazepine-9-carbonitrile] | 7.00 to 10.00
COc1nc(N2CCC(OC)(C(=O)N3CCOc4c(C#N)cncc4C3)CC2)nc(C)c1F [Example 195, 4-[1-(5-fluoro-4-methoxy-6-methyl-pyrimidin-2-yl)-4-methoxy-piperidine-4-carbonyl]-3,5-dihydro-2H-pyrido[3,4-f][1,4]oxazepine-9-carbonitrile] | < 6.00
Cc1cc(C(F)(F)F)nc(N2CCC(F)(C(=O)N3CCOc4c(C#N)cncc4C3)CC2)n1 [Example 168, 4-[4-fluoro-1-[4-methyl-6-(trifluoromethyl)pyrimidin-2-yl]piperidine-4-carbonyl]-3,5-dihydro-2H-pyrido[3,4-f][1,4]oxazepine-9-carbonitrile] | 6.00 to 7.00
N#Cc1cncc2c1OCCN(C(=O)C13CC(COc4ncc(F)cn4)(C1)C3)C2 [Example 93, 4-(3-(((5-fluoropyrimidin-2-yl)oxy)methyl)bicyclo[1.1.1]pentane-1-carbonyl)-2,3,4,5-tetrahydropyrido[3,4-f][1,4]oxazepine-9-carbonitrile] | 6.00 to 7.00
N#Cc1cncc2c1OCCN(C(=O)C1CCN(c3ncc(F)c(OCC(F)F)n3)CC1)C2 [Example 131, 4-(1-(4-(2,2-difluoroethoxy)-5-fluoropyrimidin-2-yl)piperidine-4-carbonyl)-2,3,4,5-tetrahydropyrido[3,4-f][1,4]oxazepine-9-carbonitrile] | 7.00 to 10.00
O=C(C1CCN(c2ncc(F)cn2)CC1)N1Cc2ccccc2CCO1 [Example 39, 2-[1-(5-fluoropyrimidin-2-yl)piperidine-4-carbonyl]-1,2,4,5-tetrahydro-3,2-benzoxazepine] | 6.00 to 7.00
Cn1cnc2cnc(N3CCC(F)(C(=O)N4CCOc5c(C#N)cncc5C4)CC3)nc21 [Example 169, 4-[4-fluoro-1-(9-methylpurin-2-yl)piperidine-4-carbonyl]-3,5-dihydro-2H-pyrido[3,4-f][1,4]oxazepine-9-carbonitrile] | 6.00 to 7.00
N#Cc1cncc2c1OCCN(C(=O)C1(F)CCN(c3ncc(F)c(OCC(F)F)n3)CC1)C2 [Example 125, 4-[1-[4-(2,2-difluoroethoxy)-5-fluoro-pyrimidin-2-yl]-4-fluoro-piperidine-4-carbonyl]-3,5-dihydro-2H-pyrido[3,4-f][1,4]oxazepine-9-carbonitrile] | 7.00 to 10.00
N#Cc1cncc2c1OCCN(C(=O)C1(F)CCN(c3ncncc3F)CC1)C2 [Example 112, 4-(4-fluoro-1-(5-fluoropyrimidin-4-yl)piperidine-4-carbonyl)-2,3,4,5-tetrahydropyrido[3,4-f][1,4]oxazepine-9-carbonitrile] | 6.00 to 7.00

same assay, conditions: GST-hRIPK1 (8-327), mean of at least two independent experiments

Structure (SMILES) | pIC50
COc1nc(N2CCC(OC)(C(=O)N3CCOc4ccncc4C3)CC2)ncc1F [Example 235, 3,5-dihydro-2H-pyrido[3,4-f][1,4]oxazepin-4-yl-[1-(5-fluoro-4-methoxy-pyrimidin-2-yl)-4-methoxy-4-piperidyl]methanone] | 7.00 to 10.00
N#Cc1cncc2c1OCCN(C(=O)C1CCN(c3ccnc4c(Cl)cnn34)C[C@@H]1F)C2 (stereo partly drawn) [Example 227, 4-[1-(3-chloropyrazolo[1,5-a]pyrimidin-7-yl)-(3,4)-trans-3-fluoro-piperidine-4-carbonyl]-3,5-dihydro-2H-pyrido[3,4-f][1,4]oxazepine-9-carbonitrile] | 7.00 to 10.00
COc1nc(N2CCC(OC)(C(=O)N3CCOc4c(C#N)cncc4C3)CC2)c(F)cc1F [Example 289, 4-[1-(3,5-difluoro-6-methoxy-2-pyridyl)-4-methoxy-piperidine-4-carbonyl]-3,5-dihydro-2H-pyrido [3,4-f][1,4]oxazepine-9-carbonitrile] | 7.00 to 10.00
Cc1ncc2c(c1C#N)OCCN(C(=O)C(C)(C)C(F)F)C2 [Example 262, 4-(3,3-difluoro-2,2-dimethyl-propanoyl)-8-methyl-3,5-dihydro-2H-pyrido[3,4-f][1,4]oxazepine-9-carbonitrile] | 6.00 to 7.00
COC1(C(=O)N2CCOc3c(F)cncc3C2)CCN(c2ncnc(OCC(F)F)n2)CC1 [Example 209, [1-[4-(2,2-difluoroethoxy)-1,3,5-triazin-2-yl]-4-methoxy-4-piperidyl]-(9-fluoro-3,5-dihydro-2H-pyrido[3,4-f][1,4]oxazepin-4-yl)methanone] | 6.00 to 7.00
COc1nc(N2CCC(C(=O)N3CCCc4ccccc4C3)CC2)ncc1F [Example 237, [1-(5-fluoro-4-methoxy-pyrimidin-2-yl)-4-piperidyl]-(1,3,4,5-tetrahydro-2-benzazepin-2-yl)methanone] | 7.00 to 10.00
N#Cc1cncc2c1OCCN(C(=O)C1CCN(c3ncc(F)cn3)CC1(F)F)C2 (single isomer, unassigned) [Example 308, 4-[3,3-Difluoro-1-(5-fluoropyrimidin-2-yl)piperidine-4-carbonyl]-3,5-dihydro-2H-pyrido[3,4-f][1,4]oxazepine-9-carbonitrile] | 7.00 to 10.00
N#Cc1cncc2c1OCCN(C(=O)C1CCN(c3nccc4ncnn34)CC1(F)F)C2 (stereo not drawn) [Example 246, 4-[3,3-difluoro-1-([1,2,4]triazolo[1,5-c]pyrimidin-5-yl)piperidine-4-carbonyl]-3,5-dihydro-2H-pyrido[3,4-f][1,4]oxazepine-9-carbonitrile] | 6.00 to 7.00
N#Cc1cncc2c1OCCN(C(=O)C1(F)CCN(c3ncc(F)cn3)CC1(F)F)C2 (single isomer, unassigned) [Example 296, 4-[3,3,4-Trifluoro-1-(5-fluoropyrimidin-2-yl)piperidine-4-carbonyl]-3,5-dihydro-2H-pyrido[3,4-f][1,4]oxazepine-9-carbonitrile] | 7.00 to 10.00
